For 17 compounds, IC50 results are on record in US11976083B2, “Inhibitors of peptidylarginine deiminases” (Gilead Sciences, Inc., priority 2020, dated 2024).

SMILES strings stand for the structures.

A word on the IC50: it is the concentration at which inhibition is half-maximal.

The assay concerns the target T1, human PAD4 (Homo sapiens, UniProt Q9UM07).
T1 construct: human PAD4 (NM_012387), A2-P663, was PCR amplified; His-SUMO (N, cleaved yes); made in house; host or cells: E. coli BL21(DE3)
Put plainly: In vitro PAD4 BAEE biochemical assay. The note with it: BAEE substrate 3 mM, 5 nM PAD4, 2 mM calcium chloride; geometric mean of multiple experiments. In short, it runs like this: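 Fluorescence read-out (ex 405/em 535 nm) of isoindole formed from ammonia, o-phthalaldehyde and DTT after EDTA stop. Reaction: 5 nM PAD4, 2 mM CaCl2, 3 mM BAEE, 2 h, 25 °C, after 30 min enzyme–compound preincubation. Normalised to BB-Cl-Amidine (50 µM) and DMSO controls.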

T1 sequence (Q9UM07 2-663): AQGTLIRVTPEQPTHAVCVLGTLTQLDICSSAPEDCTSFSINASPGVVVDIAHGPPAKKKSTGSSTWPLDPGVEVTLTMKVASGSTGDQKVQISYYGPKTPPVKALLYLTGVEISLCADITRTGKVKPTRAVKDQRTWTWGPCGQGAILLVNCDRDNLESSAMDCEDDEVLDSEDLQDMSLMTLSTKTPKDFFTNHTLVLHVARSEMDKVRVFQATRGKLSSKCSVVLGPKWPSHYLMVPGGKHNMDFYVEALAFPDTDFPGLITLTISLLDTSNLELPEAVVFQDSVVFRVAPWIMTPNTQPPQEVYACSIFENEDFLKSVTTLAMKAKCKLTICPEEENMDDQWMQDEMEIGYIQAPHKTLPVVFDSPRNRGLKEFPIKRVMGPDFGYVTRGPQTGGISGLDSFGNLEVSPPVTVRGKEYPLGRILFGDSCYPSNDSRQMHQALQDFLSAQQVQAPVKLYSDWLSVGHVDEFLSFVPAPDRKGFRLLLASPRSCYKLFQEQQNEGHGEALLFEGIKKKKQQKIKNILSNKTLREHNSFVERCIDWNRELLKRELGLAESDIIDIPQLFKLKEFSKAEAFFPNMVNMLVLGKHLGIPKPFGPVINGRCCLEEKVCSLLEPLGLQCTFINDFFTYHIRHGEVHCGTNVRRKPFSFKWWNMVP

For the compound `COc1cc(C(=O)N2CCC[C@@H](N)C2)cc2nc(-c3cc4ccc5nc4n3C[C@H]3C[C@H]3COC[C@@H](C)C(=O)N[C@@H]5C)n(C)c12` (single isomer, unassigned) [Example 312, (3˜{S},5˜{R},9˜{R},12˜{R})-18-[5-[(3˜{R})-3-aminopiperidine-1-carbonyl]-7-methoxy-1-methyl-benzimidazol-2-yl]-9,12-dimethyl-7-oxa-1,11,20-triazatetracyclo[11.5.2.0^{3,5}.0^{16,19}]icosa-13(20),14,16(19),17-tetraen-10-one], the concentration for half-maximal inhibition (IC50) worked out at 56 nM.

Turning to `COc1cc(C(=O)N2CC[C@@H](OC)[C@@H](N)C2)cc2nc(-c3cc4ccc5nc4n3CCC/C=C/c3ccccc3C(=O)N[C@@H]5C)n(C)c12` [Example 496, (2~{R},11~{E})-17-[5-[(3~{S},4~{R})-3-amino-4-methoxy-piperidine-1-carbonyl]-7-methoxy-1-methyl-benzimidazol-2-yl]-2-methyl-3,16,22-triazatetracyclo[14.5.2.0^ {5,10).0^{19,23}]tricosa-1(22),5(10),6,8,11,17,19 (23),20-octaen-4-one], the IC50 stood at 125 nM.

`COc1cc(C(=O)N2CCC[C@@H](N)[C@H]2C)cc2nc(-c3cc4ccc5nc4n3CC(F)(F)CCCc3cncc(F)c3C(=O)N[C@@H]5C)n(C)c12` [Example 679, (2~{R})-17-[5-[(2~{R},3~ {R})-3-amino-2-methyl-piperidine-1-carbonyl]-7-methoxy-1-methyl-benzimidazol-2-yl]-6,14,14-trifluoro-2-methyl-3,8,16,22-tetrazatetracyclo[14.5.2.0^ {5,10).0^{19,23}] tricosa-1(22),5(10),6,8,17, 19(23),20-heptaen-4-one]: the IC50 came out at 33 nM.

For `COc1cc(C(=O)N2CC[C@@H](OC)[C@@H](N)C2)cc2nc(-c3cc4ccc5nc4n3CCCCC[C@]3(F)C[C@H]3C(=O)N[C@@H]5C)n(C)c12` [Example 689, (2~{R},5~{S},7~{S})-14-[5-[(3~{S},4~{R})-3-amino-4-methoxy-piperidine-1-carbonyl]-7-methoxy-1-methyl-benzimidazol-2-yl]-7-fluoro-2-methyl-3,13,19-triazatetracyclo[11.5.2.0^ {5,7}.0^{16,20}]icosa-1(19),14,16(20),17-tetraen-4-one], the IC50 was 39 nM.

For `COc1cc(C(=O)N2CCC[C@@H](N)C2)cc2nc(-c3cc4ccc5nc4n3CCCCCCCC(=O)N[C@@H]5C)n(C)c12` [Example 282, (11~{R})-17-[5-[(3~{R})-3-aminopiperidine-1-carbonyl]-7-methoxy-1-methyl-benzimidazol-2-yl]-11-methyl-1,10,19-triazatricyclo[10.5.2.0^{15,18}]nonadeca-12(19),13,15(18),16-tetraen-9-one], the IC50 is 13 nM.

In the case of `COc1cc(C(=O)N2[C@H]3CC[C@@H]2[C@H](N)C3)cc2nc(-c3cc4ccc5nc4n3CCCCCCCN(C)C(=O)N[C@@H]5C)c(C)n12` [Example 211, (12~{R})-18-[7-[(1~{R},2~{R},4~{S})-2-amino-7-azabicyclo[2.2.1]heptane-7-carbonyl]-5-methoxy-3-methyl-imidazo[1,2-a]pyridin-2-yl]-9,12-dimethyl-1,9,11,20-tetrazatricyclo[11.5.2.0^{16,19}]icosa-13(20),14,16(19),17-tetraen-10-one], the 50% inhibitory concentration (IC50) was determined as 34 nM.

Turning to `COc1cc(C(=O)N[C@H]2CNCC[C@@H]2F)cc2nc(-c3cc4ccc5nc4n3CCCCCc3nnn(C)c3C(=O)N[C@@H]5C)n(C)c12` [Example 183, 2-[(2~{R})-2,6-dimethyl-4-oxo-3,6,7,8,15,21-hexazatetracyclo[13.5.2.0^{5,9}.0^{18,22}]docosa-1(21),5(9),7,16,18(22),19-hexaen-16-yl]-~{N}-[(3~{S},4~{S})-4-fluoro-3-piperidyl]-7-methoxy-1-methyl-benzimidazole-5-carboxamide], the IC50 came out at 121 nM.

As for `COc1cc(C(=O)N2CCC[C@@H](N)C2)cc2nc(-c3cc4ccc5nc4n3C[C@@H]3C[C@H]3CC[C@H]3C[C@@H]3C(=O)N[C@@H]5C)n(C)c12` [Example 167, (3~{R},5~{R},8~{S},10~{S},13~{R})-19-[5-[(3~{R})-3-aminopiperidine-1-carbonyl]-7-methoxy-1-methyl-benzimidazol-2-yl]-13-methyl-1,12,21-triazapentacyclo[12.5.2.0^{3,5}.0^{8,10}.0^ {17,20}]henicosa-14(21),15,17(20),18-tetraen-11-one], the IC50 turned out to be 90 nM.

For `COc1cc(C(=O)N[C@H]2CNCC[C@@H]2F)cc2nc(-c3cc4ccc5nc4n3CCCCCCC(F)(F)C(=O)N[C@@H]5C)n(C)c12` [Example 375, 2-[(11~{R})-8,8-difluoro-11-methyl-9-oxo-1,10,19-triazatricyclo[10.5.2.0^{15,18}]nonadeca-12(19),13,15(18),16-tetraen-17-yl]-~ {N}-[(3~{S},4~{S})-4-fluoro-3-piperidyl]-7-methoxy-1-methyl-benzimidazole-5-carboxamide], the IC50 was 109 nM.

Take `COc1cc(C(=O)N2C[C@H]3C[C@@H]2[C@@H]3N)cc2nc(-c3cc4ccc5nc4n3CC(F)(F)CCC[C@@H]3C[C@H]3C(=O)N[C@@H]5C)n(C)c12` [Example 666, (2~{R},5~{R},7~{R})-14-[5-[(1~{R},4~{R},5~{R})-5-amino-2-azabicyclo [2.1.1]hexane-2-carbonyl]-7-methoxy-1-methyl-benzimidazol-2-yl]-11,11-difluoro-2-methyl-3,13,19-triazatetracyclo [11.5.2.0^{5,7}.0^{16,20}] icosa-1(19),14,16(20),17-tetraen-4-one]: the IC50 worked out at 86 nM.

With `COc1cc(C(=O)N2CCC[C@@H](N)C2)cc2nc(-c3cc4ccc5nc4n3C[C@@H]3C[C@H]3CO[C@H](C)CC(=O)N[C@@H]5C)n(C)c12` [Example 268, (5~{R},8~{R},12~{R})-18-[5-[(3~{R})-3-aminopiperidine-1-carbonyl]-7-methoxy-1-methyl-benzimidazol-2-yl]-8,12-dimethyl-7-oxa-1,11,20-triazatetracyclo[11.5.2.0^{3,5}.0^{16,19}] icosa-13(20),14,16(19),17-tetraen-10-one], the 50% inhibitory concentration (IC50) amounted to 137 nM.

As to `CO[C@@H]1CCN(C(=O)c2cc(F)c3c(c2)nc(-c2cc4ccc5nc4n2CCCCCc2cncc(Cl)c2C(=O)N[C@@H]5C)n3C2CC2)C[C@@H]1N` [Example 661, (2~{R})-17-[5-[(3~{S),4~ {R})-3-amino-4-methoxy-piperidine-1-carbonyl]-1-cyclopropyl-7-fluoro-benzimidazol-2-yl]-6-chloro-2-methyl-3,8,16,22-tetrazatetracyclo[14.5.2.0^ {5,10).0^{19,23}] tricosa-1(22),5,7,9,17,19(23), 20-heptaen-4-one], the IC50 came out at 27 nM.

On to `C[C@H]1NC(=O)[C@](F)(c2ccccn2)CCCCCCn2c(-c3nc4cc(C(=O)N5C[C@H](N)[C@@H]6CC[C@H]5C6)cc(F)c4n3C3CC3)cc3ccc1nc32` [Example 886, (8~{R},11~{R})-17-[5-[(1~{S),4~{R},5~{R))-4-amino-2-azabicyclo[3.2.1]octane-2-carbonyl]-1-cyclopropyl-7-fluoro-benzimidazol-2-yl]-8-fluoro-11-methyl-8-(2-pyridyl)-1,10,19-triazatricyclo [10.5.2.0^{15,18}]nonadeca-12(19),13,15(18), 16-tetraen-9-one], for which the IC50 was found to be 29 nM.

On to `COc1cc(C(=O)N2C[C@H]3CC[C@@H]2[C@@H]3N)cc2nc(-c3cc4ccc5nc4n3CCCCCc3ccccc3C(=O)N[C@@H]5C)n(C)c12` [Example 42, (2~{R})-17-[5-[(1~{R},4~{R},7~{R})-7-amino-2-azabicyclo[2.2.1]heptane-2-carbonyl]-7-methoxy-1-methyl-benzimidazol-2-yl]-2-methyl-3,16,22-triazatetracyclo[14.5.2.0^{5,10}.0^{19,23}] tricosa-1(22),5,7,9,17,19(23),20-heptaen-4-one], for which the IC50 amounted to 108 nM.

Consider `CO[C@@H]1CCN(C(=O)c2cc(F)c3c(c2)nc(-c2cc4ccc5nc4n2CCCCCc2cc(Cl)ncc2C(=O)N[C@@H]5C)n3C)C[C@@H]1N` [Example 744, (2~{R})-17-[5-[(3~{S},4~ {R})-3-amino-4-methoxy-piperidine-1-carbonyl]-7-fluoro-1-methyl-benzimidazol-2-yl]-8-chloro-2-methyl-3,7,16,22-tetrazatetracyclo [14.5.2.0^{5,10).0^{19,23}] tricosa-1(22),5(10),6,8,17,19(23), 20-heptaen-4-one], for which the IC50 stood at 96 nM.

Consider `COc1cc(C(=O)N2CCC[C@@H](N)C2)cc2nc(-c3cc4ccc5nc4n3CCC/C=C/C[C@@](C)(C(F)(F)F)C(=O)N[C@@H]5C)n(C)c12` (single isomer, unassigned) [Example 2, (5˜{E},8˜{R},11˜{R})-17-[5-[(3˜{R})-3-aminopiperidine-1-carbonyl]-7-methoxy-1-methyl-benzimidazol-2-yl]-8,11-dimethyl-8-(trifluoromethyl)-1,10,19-triazatricyclo[10.5.2.0^{15,18}]nonadeca-5,12(19),13,15(18),16-pentaen-9-one], for which the IC50 came out at 75 nM.

With `C[C@H]1NC(=O)CCCCCCCn2c(-c3nc4cc(C(=O)N5[C@H]6CC[C@@H]5[C@H](N)C6)ccn4c3C3CC3)cc3ccc1nc32` [Example 249, (11~{R})-17-[7-[(1~{R},2~{R},4~{S})-2-amino-7-azabicyclo[2.2.1]heptane-7-carbonyl]-3-cyclopropyl-imidazo[1,2-a]pyridin-2-yl]-11-methyl-1,10,19-triazatricyclo[10.5.2.0^{15,18}]nonadeca-12(19),13,15(18),16-tetraen-9-one], the IC50 amounted to 51 nM.
